Measured values: patent US11510903B2, “Synergic pharmaceutical composition of the active enantiomer (S)-ketorolac and Gabapentin for the treatment of neuropathic pain” (priority 2018, dated 2022)

Key:
[1] = system: rats with a chronic constriction injury (neuropathic pain); test: Acetone test (cold allodynia) in rats with chronic constriction injury of the sciatic nerve; type: in vivo, rat (male Wistar); details: oral
From the text: (§1) Said experimental model is based on the unilateral ligature of the sciatic nerve, which produces a chronic constriction injury, (CCI). This experimental model has shown itself to be sensitive to a number of drugs that are used clinically for the symptomatic treatment of neuropathic pain. […] The following observed behaviors are indicative of neuropathic pain: (1) autotomy, the animal injures itself in the denervated leg, (2) allodynia, withdrawal of the leg in the face of harmless stimulus that may be mechanical or cold (acetone), (3) hyperalgesia, violent withdrawal of the leg in the face of a moderate thermal or mechanical stimulus (Von Frey filaments 15 g). These aforementioned parameters have been widely used on pharmacology and the modulation of neuropathic pain. The tests that are most used to determine allodynia and hyperalgesia are: mechanical hyperalgesia with the von Frey filaments, the cold allodynia with acetone, thermal hyperalgesia with the plantar test and mechanical hyperalgesia with the pinprick test.
Male Wistar rats [Crl:(WI)fBR], with a body weight of 120-140 g at the start of the experimental phase, which weighed 160-180 g when the drugs were administered, were used for the particular study in this invention. The animals were kept in polycarbonate boxes under conditions of controlled temperature and light, with 12-hour cycles of light/dark and ad limitum water and food intake. All the experiments were carried out during the light phase. The animals were used and managed following the guidelines established in the Ethical Guidelines for Pain Research of the International Association for the Study of Pain, and following a protocol approved by the Local Committee of Ethics for the Management of Laboratory Animals. The number of experimental animals was kept to a minimum (n=6 to 8), and, at the end of the experimental determinations, the animals were sacrificed using carbon dioxide.
The model for ICC neuropathic pain described by Bennett and Xie in 1988 was standardized. The rats were anesthetized and the sciatic nerve of the rear right leg was immediately dissected, by means of an incision, dissecting the biceps femoris to locate the part that is most proximal to the trifurcation of the sciatic nerve and apply four loose ligatures with silk thread. At the end of the surgery, the muscle was sutured with absorbable thread and the skin with silk thread. The surgery of the rats falsely operated on (Sham) was done in the same way, however, the sciatic nerve was not tied. This entire procedure was performed under aseptic conditions.
The degree of hyperalgesia and allodynia in the rats submitted to the sciatic nerve surgery was determined by means of the Von Frey test and the acetone test. These determinations were made a day before the surgery and, 7 days after the surgery a time-course of 180 minutes was done for both the control (saline) and for the compounds that were administered orally, in the study, both singly and combined, to evidence the hyperalgesia and allodynia that were present. Then a time-course was made of hyperalgesia and allodynia, but now in rats with chronic treatment (1 administration/12 hours), carrying out the determinations of both hyperalgesia and allodynia 30 minutes after the morning administration of the treatments being studied and in the following period: 0, 1, 3, 5 and 7 days (14 administrations in total).
At the end of the Von Frey test, the rats were left to rest on the metal screen and after a 5-10 min period, approximately 0.1 mL of acetone was applied to the plantar surface of the rear legs using a syringe with a flexible plastic tip, below the metal grating. The time (seconds) the animal remained with its leg removed from the surface was recorded with a chronometer for 60 s after exposure to the acetone. The response time of the rear right leg was measured and three replications were made at intervals of at least 2 minutes. […]

[2] = cited from earlier work
[3] = system: rats with a chronic constriction injury (neuropathic pain); test: Von Frey test (mechanical hyperalgesia, 15 g filament) in rats with chronic constriction injury of the sciatic nerve; type: in vivo, rat (male Wistar); details: oral
From the text: as §1
Male Wistar rats [Crl:(WI)fBR], with a body weight of 120-140 g at the start of the experimental phase, which weighed 160-180 g when the drugs were administered, were used for the particular study in this invention. The animals were kept in polycarbonate boxes under conditions of controlled temperature and light, with 12-hour cycles of light/dark and ad limitum water and food intake. All the experiments were carried out during the light phase. […]
The degree of hyperalgesia and allodynia in the rats submitted to the sciatic nerve surgery was determined by means of the Von Frey test and the acetone test. […]
The rats were placed on a metal screen in a box of transparent acrylic where they remained for at least 10 minutes to adapt before the test. The response was determined to a tactile stimulus applied to the plantar surface of the rear right leg using the 15 g von Frey filament. […]

[4] = Relative pharmacological potency of S-Ketorolac tromethamine versus Rac Ketorolac and AA; details: fold more potent
[5] = fold more active; cited from earlier work
[6] = system: rats (lethal effects vs anti-allodynic effects); test: Therapeutic index (DL50/DE50) and safety margin study in rats; type: in vivo, rat; details: 24 h post-treatment
Procedure: As further support for this invention, the therapeutic index study was also performed on rats 24 h post-treatment, which is defined as the quotient of DL50 (24 h)/DE50. From said analysis and calculation, we get that the higher the result, the safer the drug, as this indicates the number of times it is necessary to increase DE50 for it to be turned into DL50 in the population being analyzed.
In other words, in a combination of said active ingredients, the CDR (for desired effects and lethal effects) was farther apart, therefore S-Ketorolac is safer in combination, as these variables are much farther apart. […] There is less distance between the CDR (desired effects and lethal effects) of the compound alone, than between the CDR (desired effects and toxic effects) of S-Ketorolac in combination with gabapentin.

[7] = 31.6 mg/kg gabapentin alone, 1.5 h after administration

Structure (SMILES): NCC1(CC(=O)O)CCCCC1 [gabapentin]
- anti-allodynic effect ([1]; 3.16 mg/kg gabapentin): practically does not generate anti-allodynic effects
- maximal anti-allodynic response [1, 7]: 45.40±6.20%
- anti-allodynic effect ([1]; 31.6 mg/kg gabapentin alone, 3 h after administration): 23.70±6.90%
- anti-allodynic effect ([1]; 177.8 mg/kg gabapentin): maximum anti-allodynic effect
- time of maximal anti-allodynic response after administration (latency) ([1]; gabapentin 31.6 mg/kg alone or with 0.316 mg/kg S-Ketorolac): 1.5 h
- bioavailability ([2]; 4,800 mg/day dose): 27%
- metabolism ([2]; eliminated by renal excretion): not appreciably metabolized
- binding to plasma proteins ([2]; in vivo): 3%
- concentration in the cephalospinal liquid as share of the concentration in plasma ([2]; patients with epilepsy): approximately 20%
- maximal response for anti-hyperalgesic effects [3, 7]: 71.67±12.50%

Structure (SMILES): NC(CO)(CO)CO.O=C(c1ccccc1)c1ccc2n1CC[C@@H]2C(=O)O [S-Ketorolac tromethamine, S-(−)-5-Benzoyl-2,3-dihydro-1H-pyrrolizine-1-carboxylic acid of 2-amino-2-(hydroxymethyl)-1,3-propanediol (1:1)]
- pharmacological potency relative to AA [4]: 1037 times
- pharmacological potency relative to Rac Ketorolac [4]: 3.3 times
- activity relative to the R form [5]: 75 times

Structure (SMILES): O=C(c1ccccc1)c1ccc2n1CC[C@@H]2C(=O)O [S-Ketorolac]
- therapeutic index, DL50 (24 h)/DE50 [6]: 18,541
- anti-allodynic effect ([1]; 0.0316 mg/kg S-Ketorolac): almost no anti-allodynic effects
- maximal anti-allodynic response ([1]; 0.316 mg/kg S-Ketorolac alone, 30 minutes after administration): 44.00±7.71%
- anti-allodynic effect ([1]; 1.0 mg/kg S-Ketorolac): maximum anti-allodynic effect
- maximal response for anti-hyperalgesic effects ([3]; 31.6 mg/kg S-Ketorolac alone, 1 h after administration): 43.33±5.58%
- dose up to which the anti-hyperalgesic effect increased with dose ([3]; doses 0.0316-100 mg/kg, no further increase above): 3.16 mg/kg
